Biological target: CFTR-mediated chloride transport in human intestinal epithelial enteroid cells (Homo sapiens, UniProt P13569)
Assay: Membrane potential dye, Enteroid Assay A
Assay type: cell-based
Settings: for EC50: read-out: Ent. A EC50
Method: Base medium (ADF+++) consisted of Advanced DMEM/Ham's F12, 2 mM Glutamax, 10 mM HEPES, […] penicillin/streptomycin.
Bath 1 Buffer consisted of 1 mM MgCl2, 160 mM NaCl, 4.5 mM KCl, 10 mM HEPES, 10 mM Glucose, 2 mM CaCl2.
Chloride Free Buffer consisted of 1 mM Magnesium Gluconate, 2 mM Calcium Gluconate, 4.5 mM Potassium Gluconate, 160 mM Sodium Gluconate, 10 mM HEPES, 10 mM Glucose.
Bath1 Dye Solution consisted of Bath 1 Buffer, 0.04% Pluronic F127, 20 μM Methyl Oxonol, 30 μM CaCCinh-A01, 30 μM Chicago Sky Blue.
Chloride Free Dye Solution consisted of Chloride Free Buffer, 0.04% Pluronic F127, 20 μM Methyl Oxonol, 30 μM CaCCinh-A01, 30 μM Chicago Sky Blue.
3. Enteroid Cell Harvesting and Seeding
Cells were recovered in cell recovery solution, collected by centrifugation at 650 rpm for 5 min at 4° C., resuspended in TryPLE and incubated for 5 min at 37° C. Cells were then collected by centrifugation at 650 rpm for 5 min at 4° C. and resuspended in IEMM containing 10 μM ROCK inhibitor (RI).
4. Membrane Potential Dye, Enteroid Assay A
Briefly, cells were washed 5 times in Bath 1 Buffer. Bath 1 Dye Solution was added, and the cells were incubated for 25 min at room temperature. Following dye incubation, cells were washed 3 times in Chloride Free Dye Solution. Chloride transport was initiated by addition of Chloride Free Dye Stimulation Solution and the fluorescence signal was read for 15 min. […] Chloride transport was then expressed as a percentage of the chloride transport following treatment with 3 μM N-[(6-amino-2-pyridyl)sulfonyl]-6-(3-fluoro-5-isobutoxy-phenyl)-2-[(4S)-2,2,4-trimethylpyrrolidin-1-yl]pyridine-3-carboxamide, 3 μM (R)-1-(2,2-difluorobenzo[d][1,3]dioxol-5-yl)-N-(1-(2,3-dihydroxypropyl)-6-fluoro-2-(1-hydroxy-2-methylpropan-2-yl)-1H-indol-5-yl)cyclopropanecarboxamide and 300 nM acute N-[2,4-bis(1,1-dimethylethyl)-5-hydroxyphenyl]-1,4-dihydro-4-oxoquinoline-3-carboxamide triple combination control (% Activity).

Sequence of CFTR-mediated chloride transport in human intestinal epithelial enteroid cells (P13569 with tags, fused parts or gaps DEL508-508): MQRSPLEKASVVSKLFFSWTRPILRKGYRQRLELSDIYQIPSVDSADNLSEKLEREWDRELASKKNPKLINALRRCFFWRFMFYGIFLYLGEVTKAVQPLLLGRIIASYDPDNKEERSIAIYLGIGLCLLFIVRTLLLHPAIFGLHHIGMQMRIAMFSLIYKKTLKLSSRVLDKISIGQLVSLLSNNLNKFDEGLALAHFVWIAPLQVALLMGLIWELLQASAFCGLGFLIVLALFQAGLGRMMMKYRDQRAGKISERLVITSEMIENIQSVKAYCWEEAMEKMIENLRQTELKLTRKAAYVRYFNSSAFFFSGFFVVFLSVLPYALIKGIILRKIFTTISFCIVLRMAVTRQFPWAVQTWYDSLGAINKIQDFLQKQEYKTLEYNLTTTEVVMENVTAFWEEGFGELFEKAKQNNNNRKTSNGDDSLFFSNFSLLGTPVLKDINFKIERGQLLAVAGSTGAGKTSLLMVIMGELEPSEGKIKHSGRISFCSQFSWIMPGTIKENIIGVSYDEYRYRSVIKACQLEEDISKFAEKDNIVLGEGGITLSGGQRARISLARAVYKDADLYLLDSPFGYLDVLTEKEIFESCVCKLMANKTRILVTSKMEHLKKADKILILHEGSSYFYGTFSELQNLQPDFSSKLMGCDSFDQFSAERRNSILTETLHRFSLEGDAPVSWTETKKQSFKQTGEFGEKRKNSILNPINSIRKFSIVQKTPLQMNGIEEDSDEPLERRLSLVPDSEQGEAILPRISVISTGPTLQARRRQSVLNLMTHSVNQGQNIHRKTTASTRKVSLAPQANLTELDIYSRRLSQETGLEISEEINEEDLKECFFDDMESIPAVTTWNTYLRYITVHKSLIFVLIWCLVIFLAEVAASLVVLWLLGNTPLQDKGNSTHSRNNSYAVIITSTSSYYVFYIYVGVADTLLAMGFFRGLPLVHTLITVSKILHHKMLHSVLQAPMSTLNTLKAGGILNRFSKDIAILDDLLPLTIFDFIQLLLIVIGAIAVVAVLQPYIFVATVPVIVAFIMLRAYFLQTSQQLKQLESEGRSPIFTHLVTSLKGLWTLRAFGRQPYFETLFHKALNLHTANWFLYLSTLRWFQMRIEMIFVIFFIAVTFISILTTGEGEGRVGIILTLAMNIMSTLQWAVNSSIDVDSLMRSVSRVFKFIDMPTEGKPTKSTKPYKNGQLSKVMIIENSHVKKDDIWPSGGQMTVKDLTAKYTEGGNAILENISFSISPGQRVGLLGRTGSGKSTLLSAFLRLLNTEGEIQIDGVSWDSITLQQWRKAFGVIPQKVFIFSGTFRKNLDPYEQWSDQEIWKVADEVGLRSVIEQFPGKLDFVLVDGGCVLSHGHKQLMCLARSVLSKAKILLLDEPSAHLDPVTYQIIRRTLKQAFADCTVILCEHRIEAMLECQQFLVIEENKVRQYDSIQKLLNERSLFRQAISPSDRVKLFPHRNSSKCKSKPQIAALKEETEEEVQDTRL

| Ent. A Max Activity (%) (Enteroid Assay A) | EC50 (Enteroid Assay A) [µM] | SMILES | Ent. A Max Activity (%) (percentage of chloride transport of triple combination control (3 μM N-[(6-amino-2-pyridyl)sulfonyl]-6-(3-fluoro-5-isobutoxy-phenyl)-2-[(4S)-2,2,4-trimethylpyrrolidin-1-yl]pyridine-3-carboxamide based)) |
| --- | --- | --- | --- |
| +++ (+++ is >600%) | 1 to 3 | Cc1cccc(C)c1-c1cc2nc(n1)NS(=O)(=O)c1cccc(c1)C(=O)N1CCN([C@H]3CC[C@@H](F)CC3)C[C@H](C1)O2 (single isomer, unassigned) [Compound 39] |  |
| +++ (+++ is >600%) | < 1 | Cc1cccc(C)c1-c1cc2nc(n1)NS(=O)(=O)c1cccc(c1)C(=O)N1CCN(CCC3(C(F)(F)F)CC3)CC(C1)O2 (single isomer, unassigned) [Compound 69, 12-(2,6-Dimethylphenyl)-18-{2-[1-(trifluoromethyl)cyclopropyl]ethyl}-15-oxa-8λ^6-thia-1,9,11,18,22-pentaazatetracyclo[14.4.1.13,7.110,14]tricosa-3(23),4,6,10(22),11,13-hexaene-2,8,8-trione] |  |
| +++ (+++ is >600%) | < 1 | Cc1cccc(C)c1-c1cc2nc(n1)NS(=O)(=O)c1cccc(c1)C(=O)N1CCN([C@@H](C)C(C)(C)C)C[C@H](C1)O2 (single isomer, unassigned) [Compound 72] |  |
| +++ (+++ is >600%) | < 1 | Cc1cccc(C)c1-c1cc2nc(n1)NS(=O)(=O)c1cccc(c1)C(=O)N1CCN([C@@H](C)C(C)(C)C)C[C@H](C1)O2 (single isomer, unassigned) [Compound 73] |  |
| ++ (++ is 30-60%) | < 1 | Cc1cccc(C)c1-c1cc2nc(n1)NS(=O)(=O)c1cccc(c1)C(=O)N1CCN(Cc3ccccc3)C[C@H](O2)[C@@H]1CC(C)C (single isomer, unassigned) [Compound 87] |  |
| ++ (++ is 30-60%) | < 1 | Cc1cccc(C)c1-c1cc2nc(n1)NS(=O)(=O)c1cccc(c1)C(=O)N1CCN(Cc3ccccc3)CC(O2)C1CC(C)C (single isomer, unassigned) [Compound 88, 18-Benzyl-12-(2,6-dimethylphenyl)-21-(2-methylpropyl)-15-oxa-8λ^6-thia-1,9,11,18,22-pentaazatetracyclo[14.4.1.13,7.110,14]tricosa-3(23),4,6,10(22),11,13-hexaene-2,8,8-trione] |  |
| +++ (+++ is >600%) | < 1 | Cc1cccc(C)c1-c1cc2nc(n1)NS(=O)(=O)c1cccc(c1)C(=O)N1CCN(Cc3ccccc3)CC(O2)C1CC(C)C (single isomer, unassigned) [Compound 89, 18-benzyl-12-(2,6-dimethylphenyl)-21-(2-methylpropyl)-15-oxa-8λ^6-thia-1,9,11,18,22-pentaazatetracyclo[14.4.1.13,7.110,14]tricosa-3(23),4,6,10(22),11,13-hexaene-2,8,8-trione] |  |
| +++ (+++ is >600%) | < 1 | Cc1cccc(C)c1-c1cc2nc(n1)NS(=O)(=O)c1cccc(c1)C(=O)N1CCN(Cc3ccccc3)CC(O2)C1CC(C)C (single isomer, unassigned) [Compound 90, 18-Benzyl-12-(2,6-dimethylphenyl)-21-(2-methylpropyl)-15-oxa-8λ^6-thia-1,9,11,18,22-pentaazatetracyclo[14.4.1.13,7.110,14]tricosa-3(23),4,6,10(22),11,13-hexaene-2,8,8-trione] |  |
| +++ (+++ is >600%) | < 1 | Cc1cccc(C)c1-c1cc2nc(n1)NS(=O)(=O)c1cccc(c1)C(=O)N1CCN(Cc3ccccc3)CC(O2)C1CC(C)C (single isomer, unassigned) [Compound 94, 18-Benzyl-12-(2,6-dimethylphenyl)-21-(2-methylpropyl)-15-oxa-8λ^6-thia-1,9,11,18,22-pentaazatetracyclo[14.4.1.13,7.110,14]tricosa-3(23),4,6,10(22),11,13-hexaene-2,8,8-trione] |  |
| +++ (+++ is >600%) | < 1 | Cc1cccc(C)c1-c1cc2nc(n1)NS(=O)(=O)c1cccc(c1)C(=O)N1CCN(C(=O)OCc3ccccc3)C[C@H](O2)[C@H]1C (single isomer, unassigned) [Compound 112] |  |
| + (+ is <30%) | 3 to 30 | Cc1cccc(C)c1-c1cc2nc(n1)NS(=O)(=O)c1cccc(c1)C(=O)N1CCN(C(=O)OCc3ccccc3)C[C@@H](O2)[C@H]1C (single isomer, unassigned) [Compound 113] |  |

The next lines start with the compound.

| SMILES | Ent. A Max Activity (%) (Enteroid Assay A) | EC50 (Enteroid Assay A) [µM] | Ent. A Max Activity (%) (percentage of chloride transport of triple combination control (3 μM N-[(6-amino-2-pyridyl)sulfonyl]-6-(3-fluoro-5-isobutoxy-phenyl)-2-[(4S)-2,2,4-trimethylpyrrolidin-1-yl]pyridine-3-carboxamide based)) |
| --- | --- | --- | --- |
| Cc1cccc(C)c1-c1cc2nc(n1)NS(=O)(=O)c1cccc(c1)C(=O)N1CCN(C3CCC3(C)C)C[C@H](C1)O2 (single isomer, unassigned) [Compound 9] | +++ (+++ is >600%) | < 1 |  |
| Cc1cccc(C)c1-c1cc2nc(n1)NS(=O)(=O)c1cccc(c1)C(=O)N1CCN(C3CCC3(C)C)C[C@H](C1)O2 (single isomer, unassigned) [Compound 10] | +++ (+++ is >600%) | < 1 |  |
| Cc1cccc(C)c1-c1cc2nc(n1)NS(=O)(=O)c1cccc(c1)C(=O)N1CCN(C3CCC(C)(C)C3)C[C@H](C1)O2 (single isomer, unassigned) [Compound 36] | +++ (+++ is >600%) | < 1 |  |
| Cc1cccc(C)c1-c1cc2nc(n1)NS(=O)(=O)c1cccc(c1)C(=O)N1CCN(C3CCC(C)(C)C3)C[C@H](C1)O2 (single isomer, unassigned) [Compound 37] | +++ (+++ is >600%) | < 1 |  |
| Cc1cccc(C)c1-c1cc2nc(n1)NS(=O)(=O)c1cccc(c1)C(=O)N1CCN([C@H]3CC[C@@H](F)CC3)C[C@H](C1)O2 (single isomer, unassigned) [Compound 38] | +++ (+++ is >600%) | < 1 |  |
| Cc1cccc(C)c1-c1cc2nc(n1)NS(=O)(=O)c1cccc(c1)C(=O)N1CCNCC(O2)C1CC(C)C (single isomer, unassigned) [Compound 91, 12-(2,6-Dimethylphenyl)-21-(2-methylpropyl)-15-oxa-8λ^6-thia-1,9,11,18,22-pentaazatetracyclo[14.4.1.13,7.110,14]tricosa-3(23),4,6,10(22),11,13-hexaene-2,8,8-trione] | +++ (+++ is >600%) | 1 to 3 |  |
| Cc1cccc(C)c1-c1cc2nc(n1)NS(=O)(=O)c1cccc(c1)C(=O)N1CCN(CCC(C)(C)C)CC(O2)C1CC(C)C (single isomer, unassigned) [Compound 92, 18-(3,3-Dimethylbutyl)-12-(2,6-dimethylphenyl)-21-(2-methylpropyl)-15-oxa-8λ^6-thia-1,9,11,18,22-pentaazatetracyclo[14.4.1.13,7.110,14]tricosa-3(23),4,6,10(22),11,13-hexaene-2,8,8-trione] | +++ (+++ is >600%) | < 1 |  |
| Cc1cccc(C)c1-c1cc2nc(n1)NS(=O)(=O)c1cccc(c1)C(=O)N1Cc3cccnc3[C@H](C1)O2 (single isomer, unassigned) [Compound 196, 12-(2,6-Dimethylphenyl)-15-oxa-8λ^6-thia-1,9,11,18,25-pentaazapentacyclo[14.7.1.13,7.110,14.017,22]hexacosa-3,5,7(26),10(25),11,13,17,19,21-nonaene-2,8,8-trione] |  |  | + (+ is <300%) |

Reference: patent publication US20240018161A1, “MODULATORS OF CYSTIC FIBROSIS TRANSMEMBRANE CONDUCTANCE REGULATOR” (VERTEX PHARMACEUTICALS INCORPORATED, priority 2020, published 2024)
